From patent publication US20140112895A1, “GLP-1 PROMOTER MEDIATED INSULIN EXPRESSION FOR THE TREATMENT OF DIABETES” (priority 2010, published 2014)

System: STC-1 cells
Test: MTT assay of antibiotic cytotoxicity on STC-1 cells
Format: cell-based, mouse
Conditions: STC-1 cells without antibiotic resistant gene; antibiotic range 0 to 1 mg/ml; optical density read at 560 nm
Description: For assessment of antibiotic cytotoxicity, a common methodology is the MTT assay which has been widely used as a colorimetric approach based on the activity of living cells. MTT assay is a standard assay (an assay which measures changes in color) for measuring cellular proliferation. Yellow MTT (3-(4,5-Dimethylthiazol-2-yl)-2,5-diphenyltetrazolium bromide, a tetrazole) is reduced to purple formazan in the mitochondria of living cells. The absorbance of this colored solution can be quantified by measuring at a certain wavelength (usually between 500 and 600 nm) by a spectrophotometer.
Therefore, the MTT assay was done for both antibiotics to determine the appropriate concentration of the antibiotic that kills the entire STC-1 cells lacking the antibiotic resistant gene. In this case, STC-1 cells (without any antibiotic resistant gene) were treated with different concentration of zeocin and geneticin antibiotic. The concentration of antibiotics in the culture media was in the range of 0 to 1 mg/ml in 12 wells (Table 7).
Optical density of solutions was read at 560 nm on an ELISA plate reader. The absorbance of colored solution is directly proportional to the number of cells. Based on MTT assay result, the concentration of geneticin and zeocin antibiotic that are able to kill all the STC-1 cells (without antibiotic resistant gene) were 400 ug/ml and 500 ug/ml.

Row | SMILES | concentration of antibiotic able to kill all the STC-1 cells [µg/mL]
1 | CN[C@@H]1[C@@H](O)[C@@H](O[C@@H]2[C@@H](O)[C@H](O[C@H]3O[C@H]([C@@H](C)O)[C@@H](O)[C@H](O)[C@H]3N)[C@@H](N)C[C@H]2N)OC[C@]1(C)O [geneticin] | 400
2 | Cc1c(N)nc([C@H](CC(N)=O)NC[C@H](N)C(N)=O)nc1C(=O)N[C@H](C(=O)N[C@H](C)[C@@H](O)[C@H](C)C(=O)N[C@H](C(=O)NCCC1=N[C@@H](c2nc(C(=O)NCCCCN=C(N)N)cs2)CS1)[C@@H](C)O)[C@@H](O[C@@H]1O[C@@H](CO)[C@@H](O)[C@H](O)[C@@H]1O[C@H]1O[C@H](CO)[C@@H](O)[C@H](OC(N)=O)[C@@H]1O)c1cnc[nH]1 [zeocin] | 500
